Test results: ChEMBL document CHEMBL1141564, “Meriolins (3-(pyrimidin-4-yl)-7-azaindoles): synthesis, kinase inhibitory activity, cellular effects, and structure of a CDK2/cyclin A/meriolin complex” (J Med Chem, 2008)

Key:
SH-SY5Y = assay: cells; conditions: Homo sapiens, 48 h
Description: Survival of human SHSY5Y cells after 48 hrs by MTS reduction assay

GBM = assay: cells; conditions: Homo sapiens, 48 h
Description: Survival of human GBM cells after 48 hrs by neutral red reduction assay

KMS-11 = assay: cells; conditions: Homo sapiens, KMS-11, 48 h
Description: Survival of human KMS11 cells after 48 hrs by neutral red reduction assay

[1] = molecular target: Cyclin-dependent kinase 2/cyclin A (Homo sapiens, UniProt P24941); assay: Inhibition of human recombinant CDK2/cyclin A expressed in insect cells
[2] = Inhibition of starfish oocyte CDK1/cyclin B; design: species or system Marthasterias glacialis
CDK9/cyclin T1 = CDK9/cyclin T1 (Homo sapiens, UniProt P50750); assay: Inhibition of human recombinant CDK9/cyclin T expressed in insect cells
[3] = Inhibition of pig GSK-3-alpha/GSK-3beta; design: species or system Sus scrofa
HEK293 = assay: cells; conditions: Homo sapiens, HEK293, 48 h
Description: Survival of human HEK293 cells after 48 hrs by MTS reduction assay

LS174T = assay: cells; conditions: Homo sapiens, 48 h
Description: Survival of human LS174T cells after 48 hrs by MTS reduction assay

[4] = Inhibition of pig CK1delta/CK1epsilon; design: species or system Sus scrofa
[5] = molecular target: Cyclin-dependent kinase 5/CDK5 activator 1 (Homo sapiens, UniProt Q00535); assay: Inhibition of recombinant GST-CDK5/p25 expressed in Escherichia coli
[6] = molecular target: Dual specificity tyrosine-phosphorylation-regulated kinase 1A (Rattus norvegicus, UniProt Q63470); assay: Inhibition of rat recombinant GST-DYRK1A expressed in Escherichia coli
HCT-116 [7] = assay: Antiproliferative activity against human HCT116 cells after 5 days; format: functional, cell-based; conditions: HCT-116, 120 h
HCT-116 [8] = assay: Antiproliferative activity against human HCT116 cells assessed as reduction in diameter of spheroids at 1 uM after 5 days; format: functional

Sequence of CDK9/cyclin T1 (O60563 whole entry): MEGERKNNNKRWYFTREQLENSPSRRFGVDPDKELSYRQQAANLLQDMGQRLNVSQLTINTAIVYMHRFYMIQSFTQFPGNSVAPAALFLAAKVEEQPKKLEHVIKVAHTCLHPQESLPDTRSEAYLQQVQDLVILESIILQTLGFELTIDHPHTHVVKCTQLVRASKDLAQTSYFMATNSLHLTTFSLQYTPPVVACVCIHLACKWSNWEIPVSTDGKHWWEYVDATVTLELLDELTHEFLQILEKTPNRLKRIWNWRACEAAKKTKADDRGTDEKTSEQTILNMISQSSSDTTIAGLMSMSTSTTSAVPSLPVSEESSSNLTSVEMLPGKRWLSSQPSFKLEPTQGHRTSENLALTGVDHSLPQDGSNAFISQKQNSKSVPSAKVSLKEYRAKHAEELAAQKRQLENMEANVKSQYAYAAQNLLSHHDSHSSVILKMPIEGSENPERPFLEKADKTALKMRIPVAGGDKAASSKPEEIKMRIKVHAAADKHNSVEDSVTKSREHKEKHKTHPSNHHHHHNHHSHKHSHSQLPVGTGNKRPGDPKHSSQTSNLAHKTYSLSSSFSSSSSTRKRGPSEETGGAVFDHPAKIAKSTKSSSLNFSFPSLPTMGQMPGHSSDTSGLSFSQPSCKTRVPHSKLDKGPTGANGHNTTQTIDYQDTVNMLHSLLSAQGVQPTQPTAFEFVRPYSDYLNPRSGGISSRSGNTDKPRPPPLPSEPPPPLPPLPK
Sequence of CDK9/cyclin T1 (P50750 whole entry): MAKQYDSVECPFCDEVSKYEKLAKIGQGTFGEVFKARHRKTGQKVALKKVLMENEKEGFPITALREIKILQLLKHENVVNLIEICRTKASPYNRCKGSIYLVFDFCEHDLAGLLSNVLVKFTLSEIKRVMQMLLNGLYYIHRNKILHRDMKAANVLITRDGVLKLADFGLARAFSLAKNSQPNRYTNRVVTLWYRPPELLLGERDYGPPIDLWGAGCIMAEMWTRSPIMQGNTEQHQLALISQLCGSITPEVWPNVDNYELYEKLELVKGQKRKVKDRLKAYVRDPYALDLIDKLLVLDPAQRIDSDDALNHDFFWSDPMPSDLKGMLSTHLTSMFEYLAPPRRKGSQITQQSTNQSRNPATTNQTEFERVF
Sequence of Cyclin-dependent kinase 5/CDK5 activator 1 (Q00535 whole entry): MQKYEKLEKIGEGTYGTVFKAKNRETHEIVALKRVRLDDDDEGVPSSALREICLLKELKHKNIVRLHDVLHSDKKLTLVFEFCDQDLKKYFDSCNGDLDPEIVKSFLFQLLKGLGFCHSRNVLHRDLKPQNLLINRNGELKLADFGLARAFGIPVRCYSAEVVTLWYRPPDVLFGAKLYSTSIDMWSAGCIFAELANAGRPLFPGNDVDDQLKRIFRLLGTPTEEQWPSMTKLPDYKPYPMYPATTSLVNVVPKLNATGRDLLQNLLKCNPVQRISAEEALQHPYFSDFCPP
Sequence of Cyclin-dependent kinase 5/CDK5 activator 1 (Q15078 whole entry, further chain): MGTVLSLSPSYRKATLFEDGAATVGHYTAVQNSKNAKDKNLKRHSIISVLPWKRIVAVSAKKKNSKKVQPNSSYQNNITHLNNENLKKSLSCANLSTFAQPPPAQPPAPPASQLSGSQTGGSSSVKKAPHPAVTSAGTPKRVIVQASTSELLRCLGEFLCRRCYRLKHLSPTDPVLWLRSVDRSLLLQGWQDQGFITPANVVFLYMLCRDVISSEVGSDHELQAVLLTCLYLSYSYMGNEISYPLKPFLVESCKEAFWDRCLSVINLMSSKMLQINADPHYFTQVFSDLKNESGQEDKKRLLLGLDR

IC50 (SH-SY5Y) [nM]	IC50 (GBM) [nM]	IC50 (KMS-11) [nM]	IC50 [1] [nM]	IC50 (CDK9/cyclin T1) [nM]	IC50 [3] [nM]	IC50 (LS174T) [nM]	IC50 [4] [nM]	IC50 [5] [nM]	IC50 [6] [nM]	IC50 (HCT-116 [7]) [nM]	SMILES	IC50 [2] [nM]	IC50 (HEK293) [nM]	Activity (HCT-116 [8]) [um]
> 100000	> 20000	> 20000	2100	1100	7000	> 30000	600	2300			COc1ccnc2[nH]cc(-c3ccnc(SC)n3)c12	1800	66000	
43000	> 20000	> 15000	1300	1000	30000	> 30000		680	300		Nc1nccc(-c2c[nH]c3nc(Br)ccc23)n1	2200	> 100000	
1920	10000	7500	60	50	2000	> 10000	3000	230			Nc1nccc(-c2c[nH]c3nccc(Cl)c23)n1	240	10800	
10200	10000	10000	800	220	1100	10000	600	1300			COc1ccnc2[nH]cc(-c3ccncn3)c12		35500	
28000	> 20000	> 15000	700	250	1800	23500		700			Oc1ccnc2[nH]cc(-c3ccncn3)c12		84000	
670	1380	1270		26		1500		510			Nc1nccc(-c2c[nH]c3ncccc23)n1 [MERIOLIN 1]		2200	
410	1210	600	18	18	400	1060		50			Nc1nccc(-c2c[nH]c3nccc(O)c23)n1 [MERIOLIN 2]	57	960	
73	140	120	11	6	230	130	200	170		63	COc1ccnc2[nH]cc(-c3ccnc(N)n3)c12 [MERIOLIN 3]	170	240	720
81	130	60	7	7	30	100	100	5			CCOc1ccnc2[nH]cc(-c3ccnc(N)n3)c12 [MERIOLIN 4]	10	220	
26	80	40	3	5.6	25	47	200	3			CCCOc1ccnc2[nH]cc(-c3ccnc(N)n3)c12 [MERIOLIN 5]	7	85	
	80			5.6	21	60	140	3			CC(C)Oc1ccnc2[nH]cc(-c3ccnc(N)n3)c12 [MERIOLIN 6]	8	89	
> 100000	> 20000	> 20000	> 10000	5300	63000	> 30000	100000	14000	> 10000		COCCOc1ccnc2[nH]cc(-c3ccnc(N)n3)c12 [MERIOLIN 7]	35000	> 100000	
> 30000	> 20000	> 20000	1800	1200	4600	> 30000	2300	5500			Cn1cc(-c2ccnc(N)n2)c2c(O)ccnc21 [MERIOLIN 8]		> 30000	
								73000			COc1ccnc2c1c(-c1ccnc(N)n1)cn2C [MERIOLIN 9]	25000		
